The record followed here is patent publication US20080015202A1, “Thiazole Derivatives Having Vap-1 Inhibitory Activity” (Astellas Pharma Inc., priority 2004, published 2008).

Data set [1] addresses T1, VAP-1 enzyme (SSAO) in human plasma (Homo sapiens, UniProt Q16853).
T1 construct: The enzyme suspension prepared from blood plasma was pre-incubated with one of the present compounds; from tissue; host or cells: human blood plasma
T1 sequence (Q16853 27-763 limits assumed): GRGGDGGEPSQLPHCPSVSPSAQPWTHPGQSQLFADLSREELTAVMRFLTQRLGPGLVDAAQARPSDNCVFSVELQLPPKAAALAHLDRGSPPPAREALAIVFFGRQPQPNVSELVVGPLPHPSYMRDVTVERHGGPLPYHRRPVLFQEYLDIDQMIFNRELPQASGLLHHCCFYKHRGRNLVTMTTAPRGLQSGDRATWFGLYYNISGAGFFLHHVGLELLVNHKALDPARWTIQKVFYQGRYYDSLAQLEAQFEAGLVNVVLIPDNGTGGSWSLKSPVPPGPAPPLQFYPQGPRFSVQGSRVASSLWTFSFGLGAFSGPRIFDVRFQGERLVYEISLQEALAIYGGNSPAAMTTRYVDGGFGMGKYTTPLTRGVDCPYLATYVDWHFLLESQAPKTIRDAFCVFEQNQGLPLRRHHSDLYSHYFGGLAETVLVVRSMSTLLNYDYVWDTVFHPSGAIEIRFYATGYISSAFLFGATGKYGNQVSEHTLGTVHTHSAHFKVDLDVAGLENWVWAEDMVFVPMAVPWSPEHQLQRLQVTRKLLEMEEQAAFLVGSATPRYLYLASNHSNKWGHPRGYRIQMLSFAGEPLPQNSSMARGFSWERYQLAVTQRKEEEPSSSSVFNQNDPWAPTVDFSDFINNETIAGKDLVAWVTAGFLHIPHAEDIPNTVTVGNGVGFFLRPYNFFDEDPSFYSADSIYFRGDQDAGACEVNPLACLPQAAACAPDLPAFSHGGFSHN
As to the kind of experiment: Inhibitory effect on VAP-1 enzyme (SSAO) activity in human plasma, radiochemical-enzyme assay with 14C-benzylamine. In kind it is biochemical. The settings on record: human plasma enzyme suspension; 30 min pre-incubation at room temperature; 14C-benzylamine 2×10^−5 mol/l, 37° C., 1 hour. How it is done:
Inhibitory Effect of the Present Compounds on VAP-1 Enzyme (SSAO) Activity in Human Plasma.
VAP-1 enzyme (SSAO) activity in human plasma was determined by a radiochemical-enzyme assay using ^14C-benzylamine as an artificial substrate. The enzyme suspension prepared from blood plasma was pre-incubated with one of the present compounds or control compound (Reference Example) in 96-well microplate at room temperature for 30 minutes. The enzyme suspension was then incubated with ^14C-benzylamine (2×10^−5 mol/l final concentration) in a final volume of 50 μl at 37° C. for 1 hour. The enzyme reaction was terminated by adding 2 mol/l (50 μl) citric acid. The oxidized products were directly extracted into a 200 μl toluene scintillator, and its radioactivity was measured by a scintillation spectrometer. Inhibition activity was expressed as IC50 (μmol/l) value.

Where a name gives a salt, the structure may show the parent alone.

For the compound `CC(=O)Nc1nc(CCc2ccc(CCNC(=N)N)s2)cs1` [Production Example 1, N-(4-{2-[5-(2-{[amino(imino)methyl]amino}ethyl)-2-thienyl]ethyl}thiazol-2-yl)acetamide], the melting point – broadly, the temperature, or range, at which the solid turns liquid – was in the range of 121.5 to 123 °C.
`CC(=O)Nc1nc(CCc2ccc(CNC(=N)N)s2)cs1` [Production Example 3, N-(4-{2-[5-({[amino(imino)methyl]amino}methyl)-2-thienyl]ethyl}thiazol-2-yl)acetamide hydrochloride]: the IC50 – broadly, the concentration at which inhibition is half-maximal – in data set [1] worked out at 12 nM.
As for `CC(=O)Nc1nc(CCc2ccc(CC(=O)NC(=N)N)s2)cs1` [Production Example 4, 2-{5-[2-(2-acetylaminothiazol-4-yl)ethyl]-2-thienyl}-N-[amino(imino)methyl]acetamide], the melting point fell in the range of 188.5 to 190 °C. In data set [1], this compound returned an IC50 of 2.4 nM.
Consider `CC(=O)Nc1nc(CCc2ccc(CC(=O)O)s2)cs1` [Production Example 5, 2-{5-[2-(2-acetylaminothiazol-4-yl)ethyl]-2-thienyl}acetic acid], for which the melting point was 172 to 173.5 °C.
Same read-out and setting: then `CC(=O)Nc1nc(CCc2ccc(CN3CCN(C(=O)OC(C)(C)C)CC3)cc2)cs1` [Production Example 11, tert-butyl 4-{4-[2-(2-acetylaminothiazol-4-yl)ethyl]benzyl}-1-piperazinecarboxylate], with 140 to 141 °C.
For the compound `CC(=O)Nc1nc(CCc2ccc(CN3CCNCC3)cc2)cs1` [Production Example 12, N-(4-{2-[4-(1-piperazinylmethyl)phenyl]ethyl}thiazol-2-yl)acetamide], the melting point fell in the range of 164 to 165.5 °C.
On to `CC(=O)Nc1nc(CCc2ccc(Cc3c[nH]c(N)n3)cc2)cs1` [Production Example 17, N-[4-(2-{4-[(2-amino-1H-imidazol-4-yl)methyl]phenyl}ethyl)thiazol-2-yl]acetamide], for which, in data set [1], half-maximal inhibition (IC50) was put at 5.3 nM.
